Measured values reported in US8436023B2, “Cyclohexyl-azetidinyl antagonists of CCR2” (Janssen Pharmaceutica N.V., priority 2010, dated 2013).

Biological target: T1, CCR2 (Homo sapiens, UniProt P41597)
T1 construct: host or cells: THP-1 human monocytic cells
T1 sequence (P41597 1-360 isoform P41597-2): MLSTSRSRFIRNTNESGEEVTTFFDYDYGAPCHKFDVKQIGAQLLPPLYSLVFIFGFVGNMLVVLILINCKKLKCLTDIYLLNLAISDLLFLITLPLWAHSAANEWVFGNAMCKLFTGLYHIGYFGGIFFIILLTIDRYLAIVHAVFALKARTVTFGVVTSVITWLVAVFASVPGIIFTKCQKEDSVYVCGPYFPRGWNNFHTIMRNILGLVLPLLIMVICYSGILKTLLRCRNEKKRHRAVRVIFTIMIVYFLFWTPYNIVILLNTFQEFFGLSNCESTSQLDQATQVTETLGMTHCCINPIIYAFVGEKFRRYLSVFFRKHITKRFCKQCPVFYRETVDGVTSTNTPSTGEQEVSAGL
Experiment: MCP-1 Receptor Binding Assay in THP-1 Cells
Conditions: 0.5 nM 125I labeled MCP-1, 2 hours at 30° C., less polar isomer tested where stated, read-out: Inhibition of MCP-1 Binding IC50, CCR2 Binding
Description: MCP-1 Receptor Binding Assay in THP-1 Cells
Human monocytic cell line THP-1 cells were obtained from American Type Culture Collection (Manassas, Va., USA). The THP-1 cells were grown in RPMI-1640 (RPMI: Roswell Park Memorial Institute Medium-cell culture growth media) supplemented with 10% fetal bovine serum in a humidified 5% CO2 atmosphere at 37° C. The cell density was maintained […].
THP-1 (cells were incubated with 0.5 nM ^125I labeled MCP-1 (Perkin-Elmer Life Sciences, Inc. Boston, Mass.) in the presence of varying concentrations of either unlabeled MCP-1 (R & D Systems, Minneapolis, Minn.) or test compound for 2 hours at 30° C. in a 96 well plate. Cells were then harvested onto a filter plate, dried, and 20 μL of Microscint 20 was added to each well. Plates were counted in a TopCount NXT, Microplate Scintillation & Luminescence Counter (Perkin-Elmer Life Sciences, Inc. Boston, Mass.). Blank values (buffer only) were subtracted from all values and drug treated values were compared to vehicle treated values. 1 μM cold MCP-1 was used for nonspecific binding.
Where an IC50 value was not obtained for a particular compound, the percent inhibition is provided at a test concentration of 25 μM.

SMILES | IC50
CCOC(=O)C1CCC(N2CC(NC(=O)CNc3nn(C(N)=O)c4ccc(C(F)(F)F)cc34)C2)CC1 (stereo not drawn) [Example 89, 4-{3-[2-(1-Carbamoyl-5-trifluoromethyl-1H-indazol-3-ylamino)-acetylamino]-azetidin-1-yl}-cyclohexane carboxylic acid ethyl ester] | 56 nM
Cn1nc(NCC(=O)NC2CN(C3CCC(O)(c4nccs4)CC3)C2)c2cc(OC(F)(F)F)ccc21 (stereo not drawn) [Example 54, N-[1-(4-Hydroxy-4-thiazol-2-yl-cyclohexyl)-azetidin-3-yl]-2-(1-methyl-5-trifluoromethoxy-1H-indazol-3-ylamino)-acetamide] | 35 nM
CCOC1CCC(N2CC(NC(=O)CNc3nn(C)c4ccc(C(F)(F)F)cc34)C2)CC1 (stereo not drawn) [Example 36, N-[1-(4-Ethoxy-cyclohexyl)-azetidin-3-yl]-2-(1-methyl-5-trifluoromethyl-1H-indazol-3-ylamino)-acetamide] | 228 nM
Cn1nc(NCC(=O)NC2CN(C3CCC(C(=O)NCCO)CC3)C2)c2cc(C(F)(F)F)ccc21 (stereo not drawn) [Example 40, 4-{3-[2-(1-Methyl-5-trifluoromethyl-1H-indazol-3-ylamino)-acetylamino]-azetidin-1-yl}-cyclohexane carboxylic acid (2-hydroxy-ethyl)-amide] | 300 nM
CCC(O)[C@H]1CC[C@H](N2CC(NC(=O)CNc3n[nH]c4ncc(C(F)(F)F)cc34)C2)CC1 (single isomer, unassigned) [Example 106] | 330 nM
CCOC(=O)C1CCC(N2CC(NC(=O)CNc3nn(C(=O)NC(C)(C)C)c4ccc(C(F)(F)F)cc34)C2)CC1 (stereo not drawn) [Example 88, 4-{3-[2-(1-tert-Butylcarbamoyl-5-trifluoromethyl-1H-indazol-3-ylamino)-acetylamino]-azetidin-1-yl}-cyclohexanecarboxylic acid ethyl ester] | 360 nM
CCC1CCC(N2CC(NC(=O)CNc3noc4ccc(C(F)(F)F)cc34)C2)CC1 (stereo not drawn) [Example 12, N-[1-(4-Ethyl-cyclohexyl)-azetidin-3-yl]-2-(5-trifluoromethyl-benzo[d]isoxazol-3-ylamino)-acetamide] | 390 nM
CCn1nc(NCC(=O)NC2CN(C3CCC(O)(c4cnc(C)s4)CC3)C2)c2cc(C(F)(F)F)ccc21 (stereo not drawn) [Example 69, 2-(1-Ethyl-5-trifluoromethyl-1H-indazol-3-ylamino)-N-{1-[4-hydroxy-4-(2-methyl-thiazol-5-yl)-cyclohexyl]-azetidin-3-yl}-acetamide] | 8.6 nM
Cc1ccc(C2(O)CCC(N3CC(NC(=O)CNc4nn(C)c5ccc(OCC(F)(F)F)cc45)C3)CC2)cn1 (stereo not drawn) [Example 101] | 1100 nM
CCOC(=O)C1CCC(N2CC(NC(=O)CNc3nn(Cc4ccccc4)c4ccc(C(F)(F)F)cc34)C2)CC1 (stereo not drawn) [Example 97, 4-{3-[2-(1-Benzyl-5-trifluoromethyl-1H-indazol-3-ylamino)-acetylamino]-azetidin-1-yl}-cyclohexane carboxylic acid ethyl ester] | 170 nM
O=C(CNc1noc2ccc(C(F)(F)F)cc12)NC1CN(C2CCC(C3CCCCC3)CC2)C1 (stereo not drawn) [Example 5, N-(1-Bicyclohexyl-4-yl-azetidin-3-yl)-2-(5-trifluoromethyl-benzo[d]isoxazol-3-ylamino)-acetamide] | 330 nM
Cc1ncc(C2(O)CCC(N3CC(NC(=O)CNc4nn(C)c5ccc(C(F)(F)F)cc45)C3)CC2)s1 (stereo not drawn) [Example 28, N-{-[4-Hydroxy-4-(2-methyl-thiazol-5-yl)-cyclohexyl]-azetidin-3-yl}-2-(1-methyl-5-trifluoromethyl-1H-indazol-3-ylamino)-acetamide] | 19 nM
Cn1cc(C2(O)CCC(N3CC(NC(=O)CNc4nn(C)c5ccc(C(F)(F)F)cc45)C3)CC2)cn1 (stereo not drawn) [Example 25, N-{1-[4-Hydroxy-4-(1-methyl-1H-pyrazol-4-yl)-cyclohexyl]-azetidin-3-yl}-2-(1-methyl-5-trifluoromethyl-1H-indazol-3-ylamino)-acetamide] | 200 nM
CCOCC1CCC(N2CC(NC(=O)CNc3nn(C)c4ccc(C(F)(F)F)cc34)C2)CC1 (stereo not drawn) [Example 34, N-[1-(4-Ethoxymethyl-cyclohexyl)-azetidin-3-yl]-2-(1-methyl-5-trifluoromethyl-1H-indazol-3-ylamino)-acetamide] | 27 nM
Cn1nc(NCC(=O)NC2CN(C3CCC(O)(c4cncs4)CC3)C2)c2cc(OC(F)(F)F)ccc21 (stereo not drawn) [Example 55, N-[1-(4-Hydroxy-4-thiazol-5-yl-cyclohexyl)-azetidin-3-yl]-2-(1-methyl-5-trifluoromethoxy-1H-indazol-3-ylamino)-acetamide] | 42 nM
CC(C)(C)OC(=O)NC1CCC(N2CC(NC(=O)CNc3noc4ccc(C(F)(F)F)cc34)C2)CC1 (stereo not drawn) [Example 10, (4-{3-[2-(5-Trifluoromethyl-benzo[d]isoxazol-3-ylamino)-acetylamino]-azetidin-1-yl}-cyclohexyl)-carbamic acid tert-butyl ester] | 750 nM
CC(C)C1CCC(N2CC(NC(=O)CNc3noc4ccc(OC(F)(F)F)cc34)C2)CC1 (stereo not drawn) [Example 17, N-[1-(4-Isopropyl-cyclohexyl)-azetidin-3-yl]-2-(5-trifluoromethoxy-benzo[d]isoxazol-3-ylamino)-acetamide] | 750 nM
C=CCn1nc(NCC(=O)NC2CN(C3CCC(C4CCCCC4)CC3)C2)c2cc(C(F)(F)F)ccc21 (stereo not drawn) [Example 95, 2-(1-Allyl-5-trifluoromethyl-1H-indazol-3-ylamino)-N-(1-bicyclohexyl-4-yl-azetidin-3-yl)-acetamide] | 3600 nM
CC(C)C1CCC(N2CC(NC(=O)CNc3nn(C)c4ccc(OC(F)(F)F)cc34)C2)CC1 (stereo not drawn) [Example 59] | 340 nM
CC(C)C1CCC(N2CC(NC(=O)CNc3noc4ccc(C(F)(F)F)cc34)C2)CC1 (stereo not drawn) [Example 7, N-[1-(4-Isopropyl-cyclohexyl)-azetidin-3-yl]-2-(5-trifluoromethyl-benzo[d]isoxazol-3-ylamino)-acetamide] | 170 nM
N#CC1CCC(N2CC(NC(=O)CNc3n[nH]c4ccc(C(F)(F)F)cc34)C2)CC1 (stereo not drawn) [Example 48, N-[1-(4-Cyano-cyclohexyl)-azetidin-3-yl]-2-(5-trifluoromethyl-1H-indazol-3-ylamino)-acetamide] | 430 nM
CCc1ncc(C2(O)CCC(N3CC(NC(=O)CNc4nn(CC(F)(F)F)c5ccc(C(F)(F)F)cc45)C3)CC2)s1 (stereo not drawn) [Example 73, N-{1-[4-(2-Ethyl-thiazol-5-yl)-4-hydroxy-cyclohexyl]-azetidin-3-yl}-2-[1-(2,2,2-trifluoro-ethyl)-5-trifluoromethyl-1H-indazol-3-ylamino]-acetamide] | 160 nM
Cn1nc(NCC(=O)NC2CN(C3CCC(O)(c4ncco4)CC3)C2)c2cc(C(F)(F)F)ccc21 (stereo not drawn) [Example 26, N-[1-(4-Hydroxy-4-oxazol-2-yl-cyclohexyl)-azetidin-3-yl]-2-(1-methyl-5-trifluoromethyl-1H-indazol-3-ylamino)-acetamide] | 146 nM
Cn1nc(NCC(=O)NC2CN(C3CCC(c4ccc5c(c4)OCO5)CC3)C2)c2cc(C(O)C(F)(F)F)ccc21 (stereo not drawn) [Example 64, N-[1-(4-Benzo[1,3]dioxol-5-yl-cyclohexyl)-azetidin-3-yl]-2-[1-methyl-5-(2,2,2-trifluoro-1-hydroxy-ethyl)-1H-indazol-3-ylamino]-acetamide] | 300 nM
